The record followed here is patent US20230149507A1, “TREATMENT OF ALT CANCERS” (INSTITUTO DE MEDICINA MOLECULAR JOÃO LOBO ANTUNES, priority 2019, published 2023).

For test [1], the system named is U-2 OS cells. The test can be described thus: TRF analysis of cells overexpressing FANCM variants. The test is classed as cell-based, human. To be noted: overexpression. The source says:
(a) Western immunoblotting of stable wild-type FANCM (FANCM+) or FANCM mutant overexpression in U-2 OS cells. […] (b) TRF analysis of U-2 OS cells overexpressing wild-type (FANCM+) or FANCM mutants. Gels were hybridized under native and denatured conditions with radiolabelled telomeric probes to detect the C-strand and G-strand. (c) Tukey boxplots of APB frequency (top panel) and mean APB telomere intensity (bottom panel) in U-2 OS cells overexpressing wild-type (FANCM+) or FANCM mutants. Out of 3 experiments, n=150 cells scored per variant, *p<0.05, **p<0.005, Mann-Whitney test.
Empty vector and wild-type FANCM (pCMV6-Myc-DDK) constructs were obtained from Origene Technologies. Wild type FANCM (SEQ ID NO: 2) and FANCM mutants (SEQ ID NOs: 19 to 28) were cloned into the pLenti-C-Myc-DDK-IRES-Neo backbone (Origene Technologies) by restriction enzyme subcloning of gene blocks synthesized by Integrated DNA Technologies (IDT). Lentivirus was produced by the Vector and Genome Engineering Facility (Children's Medical Research Institute). For stable overexpression, cells were transduced with lentivirus, allowed to recover for 24 h, and subject to G418 selection. Cells were maintained in G418 to ensure sustained overexpression.
Genomic DNA was digested with 4 U/μg of HinfI and RsaI overnight at 37° C. […]

For test [2], the system named is U-2 OS cells. The test can be described thus: Single molecule analysis of telomeric extension events (SMAT) in cells overexpressing FANCM variants. To be noted: overexpression. The test is classed as cell-based, human. From the text:
(a) Schematic of FANCM domain interactions, mutations or deletions. For clarity, domains have been color coded by functional role (bottom panel). (b) Quantitation of metaphase-TIFs in U-2 OS cells stably overexpressing wild-type (FANCM+) or FANCM mutants. Scatterplot bars represent the mean±SEM. Out of 3 experiments, n≥110 metaphases scored for each mutant, *p<0.05, **p<0.005, Mann-Whitney test. (c) Quantitation of fragile telomeres in U-2 OS cells stably overexpressing wild-type (FANCM+) or FANCM mutants. Scatterplot bars represent the mean±SEM. Out of 3 experiments, n>100 metaphases scored for each mutant, *p<0.05, **p<0.005, Mann-Whitney test. (d) Representative dot blots and quantitation of C-circle assays in U-2 OS cells stably overexpressing wild-type (FANCM+) or FANCM domain mutants. C-circles were normalized to the mean of vector control. Error bars represent mean±SEM from n=3 experiments, *p<0.05, **p<0.005, Student's t-test. […]
Cells were labelled with 100 μM CIdU for 5 h prior to harvesting by trypsinization. […] Halogenated nucleotides were detected with a rat anti-CldU monoclonal antibody (Accurate) and Alexa Fluor 488-conjugated goat anti-rat antibody (Molecular Probes). Telomere fibers were detected on a Zeiss Axio Imager microscope with ApoTome module and analyzed with Zen software (Zeiss).

In the case of “K117R: FANCM mutant (SEQ ID NO: 20) substituted at K117R, DEAH domain disrupted”, in the test with U-2 OS cells [1], the “low molecular weight ss C-rich telomeric DNA” value is “smear of low molecular weight ss C-rich telomeric DNA was observed”.

With “FF>AA: FANCM mutant (SEQ ID NO: 25), double substitution F1232A/F1236A within the MM2 domain”, in the test on U-2 OS cells [1], the “low molecular weight ss C-rich telomeric DNA” value is listed as “smear of low molecular weight ss C-rich telomeric DNA was observed”. The “number of telomere extension events” value in the test with U-2 OS cells [2] is on record as “significant increase in the number of extension events”.
